Results taken from publication PMC8812549 (Journal of medicinal chemistry, 2021).
Read-outs that look alike come from different tables or passages of the source.

Assays:
[1] = Parallel artificial membrane permeability assay; assay type: in vitro ADME; details: passive permeability, pH 7.4
[2] = mice

With `CC(=O)N1CCC(N(Cc2ccc(Br)c(Cl)c2)C2CC(c3ccc(C)cc3)C2)CC1` (stereo not drawn) [compound 67] the PAMPA [1] was 1909 1e^−6 cm/s.
With `Cc1ccc(C2CC(N(Cc3ccc(Br)c(Cl)c3)C3CCC(N)CC3)C2)cc1` (stereo not drawn) [compound 70] the PAMPA [1] was 818.04 1e^−6 cm/s.
With `Clc1cc(CN(C2CCNCC2)C2CC(c3ccc(Br)cc3)C2)ccc1Br` (stereo not drawn) [compound 58, N-(4-Bromo-3-chlorobenzyl)-N-(3-(4-bromophenyl)cyclobutyl)piperidin-4-amine] the “unusual behavior or acute toxicity” value ([2]; 10 mg/kg IP, 24 hours, posture, body temperature, respiratory rate) was “No unusual behavior or acute toxicity”, the Cmax liver ([2]; 10 mg/kg IP, oxalate salt) was 112 µM and the PAMPA [1] was 32 1e^−6 cm/s.
In the case of `Cc1ccc(C2CC(N(Cc3ccc(Br)c(Cl)c3)C3CCN(C)CC3)C2)cc1` (stereo not drawn) [compound 68], the PAMPA [1] is reported as 274.27 1e^−6 cm/s.
With `Fc1ccc(C2CC(N(Cc3ccc(Br)c(Cl)c3)C3CCNCC3)C2)cc1` (stereo not drawn) [compound 59] the PAMPA [1] was 398 1e^−6 cm/s.
With `Cc1ccc(C2CC(N(Cc3ccc(Br)c(Cl)c3)C3CCOCC3)C2)cc1` (stereo not drawn) [compound 66] the PAMPA [1] was <6.4 1e^−6 cm/s.
With `Cc1ccc(C2CC(N(Cc3ccc(Br)c(Cl)c3)C3CCNCC3)C2)cc1` (stereo not drawn) [compound 56, N-(4-Bromo-3-chlorobenzyl)-N-(3-(p-tolyl)cyclobutyl)piperidin-4-amine] the PAMPA [1] was 806 1e^−6 cm/s.
In the case of `Cc1cccc(C2CC(N(Cc3ccc(Br)c(Cl)c3)C3CCNCC3)C2)c1` (stereo not drawn) [compound 60], the PAMPA [1] is reported as 265 1e^−6 cm/s.
With `Cc1ccc(C2CC(N(Cc3ccc(Br)c(Cl)c3)C3CCN(C(C)C)CC3)C2)cc1` (stereo not drawn) [compound 69] the PAMPA [1] was <23.1 1e^−6 cm/s.
For `Cc1ccc(C2CC(N(Cc3ccc(Br)c(Cl)c3)C3CC4CNC3C4)C2)cc1` (stereo not drawn) [compound 74], the PAMPA [1] was 122.99 1e^−6 cm/s.
`Cc1ccc([C@H]2C[C@H](N(Cc3ccc(Br)c(Cl)c3)C3CCNCC3)C2)cc1` [77b] showed a Cmax liver ([2]; 1 mg/kg, di-HCl salt) of 4.13 µM.
In the case of `Clc1cc(CN(C2CCNCC2)C2CC(c3cccc(Br)c3)C2)ccc1Br` (stereo not drawn) [compound 62], the PAMPA [1] is reported as 14 1e^−6 cm/s.
For `Cc1ccc(C2CC(N(Cc3ccc(Br)c(Cl)c3)C3CCCNCC3)C2)cc1` (stereo not drawn) [compound 72], the PAMPA [1] was 665.84 1e^−6 cm/s.
